Laboratory results from patent US20190358181A1, “METHODS FOR AUTISM SPECTRUM DISORDER PHARMACOTHERAPY” (priority 2017, published 2019).

Test system: males with ASD
Assay: Expressive One Word Picture Vocabulary Test (EOWPVT), SAT-1 trial
Type: in vivo, human
Method: Two observational examinations were performed by a clinician at 3 time points: baseline (56±8 days; mean±SEM; before the infusion), 2-days post-infusion, and 6-weeks post-infusion. The two examiner-based metrics were the Autism Diagnostic Observation Schedule, 2nd edition (ADOS-2) with video and audio files recorded on 3 cameras, and the Expressive One Word Picture Vocabulary Testing (EOWPVT). Both of these observational metrics were administered by a trained and certified examiner using approved test materials. Three standardized questionnaires were completed by parents at 3 time points: baseline, 7-days post-infusion, and 6-weeks post-infusion. The three standardized questionnaires completed by parents were the 58-question Aberrant Behavior Checklist (ABC), the 75-item Autism Treatment Evaluation Checklist (ATEC), and the 33-item repetitive behavior questionnaire (RBQ). Parents were asked to complete these three instruments with reference to how their child behaved in the previous 7 days. […]
Behavioral and neurological effects of treatment were assessed primarily by the examiner-based ADOS-2 protocol scores and standardized vocabulary testing (Expressive One Word Picture Vocabulary Test, EOWPVT), with secondary evaluation via parent-based assessments (Aberrant Behavior Checklist (ABC) scores, Autism Treatment Evaluation Checklist (ATEC) scores, Clinical Global Impression of Improvement (CGI) scores, and Repetitive Behavior Questionnaire (RBQ) scores). […] Examiner-based outcomes (ADOS and EOWPVT) were assessed at 2-days and 6-weeks after the infusion. Parent-based outcomes (ABC, ATEC, CGI, and RBQ) were assessed at 7-days and 6-weeks after the infusion. […]
Each child was used as their own control to examine before and after treatment effects from Example 1 in a paired t-test design for the analysis of the ADOS, EOWPVT, ABC, ATEC, RBQ (FIGS. 4-11 show individual analyses), and blood and urine safety data (FIGS. 2 and 3 show individual analyses). […] Categorical data, such as the presence or absence of adverse events or historical symptoms was analyzed by Fisher's exact test. […]

[1] = EOWPVT Vocabulary, 45 days after treatment

Cc1ccc(C(=O)Nc2ccc(S(=O)(=O)O)c3cc(S(=O)(=O)O)cc(S(=O)(=O)O)c23)cc1NC(=O)c1cccc(NC(=O)Nc2cccc(C(=O)Nc3cc(C(=O)Nc4ccc(S(=O)(=O)O)c5cc(S(=O)(=O)O)cc(S(=O)(=O)O)c45)ccc3C)c2)c1 [Suramin, suramin]
Difference from baseline (mean ± sd) [1]: −4.2 ± 8.3 | d (Cohen's d) [1]: −0.51 | EOWPVT scores (after single 20 mg/kg IV dose): did not change
